Results: patent US20090081157A1, “Immunostimulatory Combinations for Vaccine Adjuvants” (priority 2006, published 2009)

Experiments:
[1] = intravenous infusion, humans with non-small cell lung cancer; cited from earlier work
B16-F10 tumors = experiment: Peritumoral immunotherapy of established B16-F10 melanoma tumors; format: in vivo, C57BL/6 mice; conditions: figure legends
Protocol: BALB/c mice were injected with 1×10^6 A 20 tumor cells s.c. and […] mice were injected with 1×10^6 B16-F10 tumor cells s.c. After a palpable tumor appeared (>4 mm), 50 μl PBS or plasmid DNA (50 μg) with or without TLR agonist molecules was injected into and around the tumors every other day×5. Tumors were measured every other day.
[…] mice were injected with 1×10^6 B16-F10 tumor cells s.c. After a palpable tumor appeared (>4 mm), 50 μl PBS or plasmid DNA (50 μg) with or without TLR agonist, in the presence or absence of cationic polymer (JetPEI™ Qbiogene Irvine, Calif.) molecules, was injected into and around the tumors every other day×5. Tumors were measured every other day.
Methods: B16-F10 melanoma cells were cultured in RPMI 1640 with 10% fetal bovine serum. Cells were detached with trypsin-EDTA and washed in phosphate-buffered saline (PBS). Then, 10E5 cells in 100 ul PBS were injected subcutaneously over the abdomen of female C57BL/6 female mice, 6- to 9-weeks old (Jackson Laboratories). […]
ATPγS, a nonhydrolyzable form of ATP was added to various agonists (pSP-D-CD40L+CpG+poly(I:C)+ATPe) and the combination was injected intratumorally in to mice presenting established B16F1 melanomas. […] Tumor size was measured every other day and plotted as the product of two orthogonal diameters (i.e., “tumor area”). […]

Compound	maximum tolerated dose [1] [ug/kg per minute]	synergy with CD40L against established B16-F10 tumors (B16-F10 tumors)
Nc1ncnc2c1ncn2[C@@H]1O[C@H](COP(=O)(O)OP(=O)(O)OP(=O)(O)O)[C@@H](O)[C@H]1O [ATP, adenosine 5′-triphosphate]	50	
polyriboinosinic-polyribocytidylic acid [Poly I:C]		synergizes with CD40L
